Experiments:
[1] = tested on: Com21 synthetic gut community; assay: community biomass OD578 after 24 h drug treatment relative to untreated (fraction of untreated control); higher = more community growth; conditions: community: Com21 (Com20 + E. coli ED1a)
Procedure: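 Com21 (Com20 plus E. coli ED1a) was treated with drug for 24 h under anaerobic conditions in mGAM. Community OD578 was then measured and normalised to untreated Com21; mean of 3 biological replicates.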

Bacteroides vulgatus = assay: IC25 growth inhibition; higher = less potent
Summary of the method: (§1)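 Monocultures grown overnight in mGAM were added to pre-reduced plates holding twofold drug dilutions, giving a starting OD578 of 0.01 and 1% DMSO (or water). Growth was followed anaerobically by hourly OD578 readings in a plate reader, with at least three biological replicates. The median growth-curve AUC per concentration was forced to be monotonic. IC25 was the lowest concentration with median AUC below 0.75, reported as a tested interval.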

[2] = tested on: Bacteroides thetaiotaomicron; assay: IC25 growth inhibition; higher = less potent
Summary of the method: as §1

Shigella flexneri = assay: IC25 growth inhibition; higher = less potent
Summary of the method: as §1

Vibrio cholerae = assay: IC25 growth inhibition; higher = less potent
Summary of the method: as §1

Bacteroides uniformis = assay: IC25 growth inhibition; higher = less potent
Summary of the method: as §1

[3] = tested on: Streptococcus parasanguinis; assay: IC25 growth inhibition; higher = less potent
Summary of the method: as §1

[4] = tested on: Yersinia pseudotuberculosis; assay: IC25 growth inhibition; higher = less potent
Summary of the method: as §1

Parabacteroides merdae = assay: IC25 growth inhibition; higher = less potent
Summary of the method: as §1

Collinsella aerofaciens = assay: IC25 growth inhibition; higher = less potent
Summary of the method: as §1

Coprococcus comes = assay: IC25 growth inhibition; higher = less potent
Summary of the method: as §1

Bacteroides fragilis NT = assay: IC25 growth inhibition; higher = less potent
Summary of the method: as §1

Roseburia intestinalis = assay: IC25 growth inhibition; higher = less potent
Summary of the method: as §1

Clostridium bolteae = assay: IC25 growth inhibition; higher = less potent
Summary of the method: as §1

Clostridium ramosum = assay: IC25 growth inhibition; higher = less potent
Summary of the method: as §1

Streptococcus salivarius = assay: IC25 growth inhibition; higher = less potent
Summary of the method: as §1

[5] = tested on: Clostridium saccharolyticum; assay: IC25 growth inhibition; higher = less potent
Summary of the method: as §1

[6] = tested on: Yersinia enterocolitica WA-314; assay: IC25 growth inhibition; higher = less potent
Summary of the method: as §1

Clostridium perfringens = assay: IC25 growth inhibition; higher = less potent
Summary of the method: as §1

Ruminococcus gnavus = assay: IC25 growth inhibition; higher = less potent
Summary of the method: as §1

[7] = tested on: Fusobacterium nucleatum subsp. Nucleatum; assay: IC25 growth inhibition; higher = less potent
Summary of the method: as §1

Eubacterium rectale = assay: IC25 growth inhibition; higher = less potent
Summary of the method: as §1

Escherichia coli ED1a = assay: IC25 growth inhibition; higher = less potent
Summary of the method: as §1

Dorea formicigenerans = assay: IC25 growth inhibition; higher = less potent
Summary of the method: as §1

[8] = tested on: Salmonella enterica typhimurium; assay: IC25 growth inhibition; higher = less potent
Summary of the method: as §1
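Wherever IC25 growth inhibition is given: lowest concentration where monotonic median growth AUC falls below 0.75 of drug-free control.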

SMILES	community biomass OD578 ([1]; drug pretreatment concentration 10 µM)	community biomass OD578 ([1]; drug pretreatment concentration 20 µM)	community biomass OD578 ([1]; drug pretreatment concentration 40 µM)	community biomass OD578 ([1]; drug pretreatment concentration 80 µM)	community biomass OD578 ([1]; drug pretreatment concentration 160 µM)	IC25 growth inhibition (Bacteroides vulgatus) [µM]	IC25 growth inhibition [2] [µM]	IC25 growth inhibition (Shigella flexneri) [µM]	IC25 growth inhibition (Vibrio cholerae) [µM]	IC25 growth inhibition (Bacteroides uniformis) [µM]	IC25 growth inhibition [3] [µM]	IC25 growth inhibition [4] [µM]	IC25 growth inhibition (Parabacteroides merdae) [µM]	IC25 growth inhibition (Collinsella aerofaciens) [µM]	IC25 growth inhibition (Coprococcus comes) [µM]	IC25 growth inhibition (Bacteroides fragilis NT) [µM]	IC25 growth inhibition (Roseburia intestinalis) [µM]	IC25 growth inhibition (Clostridium bolteae) [µM]	IC25 growth inhibition (Clostridium ramosum) [µM]	IC25 growth inhibition (Streptococcus salivarius) [µM]	IC25 growth inhibition [5] [µM]	IC25 growth inhibition [6] [µM]	IC25 growth inhibition (Clostridium perfringens) [µM]	IC25 growth inhibition (Ruminococcus gnavus) [µM]	IC25 growth inhibition [7] [µM]	IC25 growth inhibition (Eubacterium rectale) [µM]	IC25 growth inhibition (Escherichia coli ED1a) [µM]	IC25 growth inhibition (Dorea formicigenerans) [µM]	IC25 growth inhibition [8] [µM]
Cc1c(N(C)CS(=O)(=O)O)c(=O)n(-c2ccccc2)n1C [Metamizole]	1	0.981	1.01	1	0.994	–	–	–	–	–	–	–	–	–	–	–	–	–	–	–	–	–	–	–	–	–	–	–	–
Cc1ncc([N+](=O)[O-])n1CCO [Metronidazol]	–	–	–	–	–	< 1.25	< 1.25	> 160	≤ 160	< 1.25	≤ 160	≤ 160	< 1.25	< 1.25	< 1.25	< 1.25	< 1.25	< 1.25	< 1.25	> 160	< 1.25	> 160	< 1.25	< 1.25	< 1.25	< 1.25	> 160	< 1.25	–
CC(C)(O)c1ccccc1CC[C@@H](SCC1(CC(=O)O)CC1)c1cccc(/C=C/c2ccc3ccc(Cl)cc3n2)c1 [Montelukast]	–	–	–	–	–	> 80	> 80	> 20	> 20	> 80	≤ 10	> 20	> 80	> 20	> 80	> 40	≤ 10	> 40	> 10	≤ 5	> 10	> 10	≤ 5	> 80	> 80	≤ 10	> 160	> 80	> 10
CCn1cc(C(=O)O)c(=O)c2ccc(C)nc21 [Nalidixic Acid]	–	–	–	–	–	> 160	≤ 160	≤ 2.5	< 1.25	≤ 160	> 160	≤ 2.5	≤ 80	> 160	> 160	≤ 160	> 160	> 160	≤ 160	> 160	> 160	> 160	≤ 20	> 160	≤ 160	> 160	≤ 5	> 160	≤ 5
CCn1cc(C(=O)O)c(=O)c2cc(F)c(N3CCNCC3)cc21 [Norfloxacin]	–	–	–	–	–	≤ 80	≤ 80	< 1.25	< 1.25	≤ 20	≤ 20	≤ 10	≤ 40	≤ 10	≤ 20	≤ 80	≤ 160	≤ 20	≤ 160	≤ 10	≤ 40	≤ 10	≤ 2.5	≤ 10	≤ 20	≤ 40	< 1.25	≤ 10	< 1.25
CO[C@@H]1[C@@H](OC(N)=O)[C@@H](O)[C@H](Oc2ccc3c(O)c(NC(=O)c4ccc(O)c(CC=C(C)C)c4)c(=O)oc3c2C)OC1(C)C [Novobiocin]	–	–	–	–	–	< 1.25	≤ 20	≤ 2.5	< 1.25	< 1.25	< 1.25	≤ 20	< 1.25	< 1.25	< 1.25	≤ 20	< 1.25	< 1.25	≤ 5	< 1.25	≤ 10	≤ 20	≤ 5	< 1.25	≤ 5	≤ 5	≤ 5	< 1.25	≤ 40
N=C(N)c1ccc(OCCCCCOc2ccc(C(=N)N)cc2)cc1 [Pentamidine Isothionate]	–	–	–	–	–	≤ 20	≤ 20	≤ 160	> 160	≤ 20	≤ 10	≤ 160	≤ 5	≤ 10	< 1.25	≤ 80	≤ 5	> 160	≤ 40	≤ 10	≤ 10	> 80	≤ 2.5	≤ 2.5	≤ 10	≤ 5	> 160	< 1.25	–
CN[C@H]1CC[C@@H](c2ccc(Cl)c(Cl)c2)c2ccccc21 [Sertraline]	–	–	–	–	–	> 160	≤ 80	≤ 160	≤ 80	≤ 160	≤ 160	≤ 160	≤ 80	≤ 80	≤ 160	≤ 160	≤ 40	≤ 160	≤ 80	≤ 80	≤ 80	≤ 80	≤ 80	≤ 40	≤ 160	≤ 10	≤ 160	≤ 80	> 160
O=C(O)Cc1cc(I)c(Oc2ccc(O)c(I)c2)c(I)c1 [Tiratricol]	–	–	–	–	–	≤ 40	≤ 80	> 160	≤ 80	≤ 80	≤ 20	> 160	≤ 40	≤ 80	≤ 20	≤ 80	≤ 40	≤ 80	≤ 20	≤ 10	≤ 20	> 160	≤ 20	≤ 20	≤ 40	≤ 160	> 160	≤ 80	> 160

From the supplement of paper PMC12350171
